{"source": "patent US20080119548A1", "about": "“Control Of Feeding Behavior By Changing Neuronal Energy Balance” (priority 2004, published 2008)", "key": {"pCREB": {"system": "pCREB", "test": "Immunohistochemistry of pCREB in the arcuate nucleus", "assay_type": "in vivo, mice", "conditions": "C75-treated (24 hr) mice", "protocol": "Free-floating sections were blocked in PBS containing 5% goat serum, 0.1% BSA, 0.05% Triton-X100, 1 mM NaF for 1 hr at room temperature and incubated with anti-phospho-AMPKα (α1 and α2) antibody (1:100) or anti-phospho-CREB antibody (1:500, Cell Signaling) in PBS containing 1% goat serum, 0.1% BSA, 0.05% Triton-X100, 1 mM NaF overnight at 4° C. Signal was visualized by Vectastain ABC kit (Vector). Images of in situ hybridization and immunohistochemistry were visualized using an Axiocam HRc digital camera (Carl Zeiss) and images were acquired using Improvision Openlab software, and quantified by NIH Image program (Macro)."}, "primary cortical neurons": {"system": "primary cortical neurons", "test": "ATP, AMP/ATP ratio and AMPK activity in primary cortical neurons", "assay_type": "cell-based, Sprague-Dawley rats", "conditions": "C75 treatment", "protocol": "Cortices were removed from E17 Sprague-Dawley rats (Harlan, Indianapolis, Ind.), and were dissociated by mild trypsinization and trituration as described by Dawson, et al. J Neurosci 13, 2651-2661 (1993). Cells were plated on poly-D-lysine coated plastic Nunclon culture dishes at a density of 5×10^5 cells/cm^2 in Minimum Essential Media (MEM) supplemented with horse serum, fetal bovine serum, glutamine, and the antibiotics gentamycin and kanamycin. […]\nNeurons were lysed on ice using TE buffer (100 mM Tris and 4 mM EDTA) and removed from the plate. ATP levels were then measured in the linear range using the ATP Bioluminescence Kit CLS II (Roche, Indianapolis, Ind.) by following the manufacturer's protocol, and results were read by a Perkin-Elmer Victor^2 1420.\nAdenine nucleotide levels in primary cortical neuron lysates were determined by HPLC analysis as described by Stocchi, et al. Anal Biochem 167, 181-190 (1987). […]\nAMPK activity was determined by performing SAMS peptide assays as described by Witters, et al., J Biol Chem 267, 2864-2867 (1992). […] Immunoprecipitates were then washed and resuspended in 4× assay buffer and kinase activity was assessed by measurement (for 20 min at 30° C.) of the incorporation of ^32P into the synthetic SAMS peptide substrate, HMRSAMSGLHLVKRR, (Princeton Biomolecules). […]"}, "BALB/c male mice": {"system": "BALB/c male mice", "test": "Measurement of food intake after i.c.v. or i.p. injection", "assay_type": "in vivo", "protocol": "Male BALB/c mice (7-9 weeks) were purchased from Charles River Laboratories (and housed in a controlled-light (12 hr light/12 hr dark cycle) environment (lights on 0200-1400 h) and allowed ad libitum access to standard laboratory chow and water. For fasting, food was withdrawn from cage at the onset of the dark cycle for 24 hr, but ad libitum access to water was allowed.\nMice were implanted with permanent stainless steel cannulae into the lateral ventricle of the brain 0.6 mm caudal to Bregma, 1.2 mm lateral to the midline, and sunk to a depth of 2.2 mm below the surface of the skull. Implanted mice were housed in individual cages and utilized for i.c.v. and i.p. injections as indicated. C75 dissolved in RPMI1640 (Gibco-BRL), AICAR (Toronto Research Chemicals Inc) or compound C (46) (FASgen, Inc.) in saline was injected i.c.v., such that desired dose could be administered in a volume of 2.5 μl, while control groups received vehicle only. Injections were done immediately preceding dark onset and food intake measurements were taken at 1 hr (0-1 hr interval), 3 hr (1-3 hr interval), and 24 hr (3-24 hr interval) after dark onset. C75 i.p./AICAR i.c.v. treatment groups were i.p. injected with 5 mg/kg bodyweight C75 dissolved in […] of glucose-free RPMI 1 hr before the dark onset, followed by 3 μg/2.5 μl saline i.c.v. AICAR immediately preceding the dark onset. Control groups received 200 μl of glucose free RPMI 1 hr before lights off and 2.5 μl of saline. Administration of i.p. compound C (10 or 30 mg/kg bodyweight) or C75 (10 mg/kg bodyweight) was followed by food intake measurement at the same times indicated."}, "pAMPKα": {"system": "pAMPKα", "test": "Immunohistochemistry of pAMPKα in the arcuate nucleus", "assay_type": "in vivo", "conditions": "C75-treated (24 hr) mice", "protocol": "Free-floating sections were blocked in PBS containing 5% goat serum, 0.1% BSA, 0.05% Triton-X100, 1 mM NaF for 1 hr at room temperature and incubated with anti-phospho-AMPKα (α1 and α2) antibody (1:100) or anti-phospho-CREB antibody (1:500, Cell Signaling) in PBS containing 1% goat serum, 0.1% BSA, 0.05% Triton-X100, 1 mM NaF overnight at 4° C. Signal was visualized by Vectastain ABC kit (Vector).\nImages of in situ hybridization and immunohistochemistry were visualized using an Axiocam HRc digital camera (Carl Zeiss) and images were acquired using Improvision Openlab software, and quantified by NIH Image program (Macro)."}}, "data": [{"compound": "C=C1C(=O)OC(CCCCCCCC)C1C(=O)O", "note": "(stereo not drawn) [C75]", "values": [{"measurement": "level of pCREB in the arcuate nucleus, % of control", "setting": "pCREB", "value": "39 % of control"}, {"measurement": "AMPK activity in primary cortical neurons", "setting": "primary cortical neurons", "value": "inactivation of AMPK"}, {"measurement": "ratio of AMP/ATP in primary cortical neurons", "setting": "primary cortical neurons", "value": "decrease in the ratio of AMP/ATP"}, {"measurement": "reduction in food intake over 24 hr", "setting": "BALB/c male mice; C75 5 mg i.c.v., p<0.05", "value": 20.3, "unit": "%"}, {"measurement": "food intake at 1 hr, % of control (RPMI/saline)", "setting": "BALB/c male mice; C75 5 mg/kg bodyweight i.p. 1 hr before dark onset, saline i.c.v., p<0.01", "value": "37.5 % of control"}, {"measurement": "reduction in food intake over 24 hr", "setting": "BALB/c male mice; C75 10 mg i.c.v., p<0.01", "value": 37.7, "unit": "%"}, {"measurement": "food intake, % of control", "setting": "BALB/c male mice; C75 10 mg/kg bodyweight i.p., 0-1 hr", "value": "8.3 % of control"}, {"measurement": "food intake, % of control", "setting": "BALB/c male mice; C75 10 mg/kg bodyweight i.p., 1-3 hr", "value": "23.3 % of control"}, {"measurement": "food intake, % of control", "setting": "BALB/c male mice; C75 10 mg/kg bodyweight i.p., 3-24 hr", "value": "30.1 % of control"}, {"measurement": "total 24 hr-food consumption, % of control", "setting": "BALB/c male mice; C75 10 mg/kg bodyweight i.p., total 24 hr, p<0.001", "value": "26.3 % of control"}, {"measurement": "food intake during the 1-3 and 3-24 hr time intervals", "setting": "BALB/c male mice; C75 i.c.v., dose-dependent", "value": "significantly reduced food intake"}, {"measurement": "pAMPKa-immunoreactivity in the arcuate nucleus, % of control", "setting": "pAMPKα", "value": "12 % of control"}]}]}
